US8093284B2, “Process for producing aqueous solution of doripenem” (Shionogi & Co., Ltd., priority 2005, dated 2012)

Experiments:
Assay type in all cases: physicochemical
[1] = Decomposition of doripenem on heating and dissolving an aqueous suspension with a continuous heating and dissolving equipment; settings: continuous heating; position of 28 m of the equipment; heating source around 60° C., about 6 L/min, solution around 55° C. at outlet; 15.5 kg in 280 L water
Method: An aqueous suspension of doripenem (aqueous suspension in which 15.5 kg of doripenem had been mixed with 280 L of water) was cooled to 10° C. or lower to suppress decomposition during waiting. This aqueous suspension was passed through a continuous heating and dissolving equipment of an inner diameter of around 23 mm and a length of around 28 m, having a heating source at around 60° C. at about 6 L/min, and elevation in a temperature and dissolution were performed during passage through the machine to obtain an aqueous solution of doripenem at around 55° C. at an outlet of the dissolving machine. A decomposition degree of doripenem at a position of 28 m of the continuous heating and dissolving equipment was about 0.2%.

[2] = Decomposition of doripenem in an aqueous solution at 40, 50 or 60° C.; settings: aqueous solution at 40° C., 50° C., or 60° C.
Method: Decomposition of doripenem in an aqueous solution of doripenem at 40° C., 50° C., or 60° C. was examined. […] FIG. 2, FIG. 3 and FIG. 4 show a doripenem decomposition curve at each temperature.

[3] = Decomposition of doripenem on heating and dissolving an aqueous suspension in a batch manner; settings: heating medium around 60° C., solution around 55° C., measured immediately after dissolution, 15.5 kg in 280 L water
Method: An aqueous suspension of doripenem (aqueous suspension in which 15.5 kg of doripenem had been mixed with 280 L of water) was cooled to 10° C. or lower to suppress decomposition during waiting. This aqueous suspension was dissolved as it was using a heating medium at around 60° C. to obtain an aqueous solution of doripenem, at around 55° C. A decomposition degree of doripenem measured immediately after dissolution of doripenem was about 7%.

decomposition degree of doripenem [1]: about 0.2%
decomposition degree of doripenem [3]: about 7%
Structure (SMILES): C[C@@H](O)[C@H]1C(=O)N2C(C(=O)O)=C(S[C@@H]3CN[C@H](CNS(N)(=O)=O)C3)[C@H](C)[C@H]12 [doripenem]
decomposition of doripenem in aqueous solution [2]: decomposed at these temperatures with time
